Laboratory results: ChEMBL document CHEMBL5729671, “Substituted pyrazolo[1,5-a]pyrazines as negative allosteric modulators of group II metabotropic glutamate receptor” (2023)

biological target: Metabotropic glutamate receptor 2 (Homo sapiens, UniProt Q14416); experiment: Assessment of mGlu2 Receptor Negative Allosteric Modulator Activity: Human mGlu2 receptor stable expressing cells were prepared and incubated. Luminescence signals by mGlu2 receptor stimulation were detected with FDSS7000 (Hamamatsu Photonics). The compound solution prepared above was added to a plate where cells and luminescent substrates were added (10 μl/well). After 120 seconds of the addition, EC80 Glutamate-containing solution was added thereto (10 μl/well), and luminescence signals were measured for 300 seconds after the addition (center wavelength: 465 nm) for calculation of RLU (Integration). mGlu2 receptor negative allosteric modulator activity of a compound was calculated by (100-100×(RLU of each compound and concentration)/(RLU of DMSO group)).The present compound was assessed with the above biological test, and the compounds with mGlu2 receptor negative allosteric modulator activity were found out.
Sequence (Q14416 whole entry): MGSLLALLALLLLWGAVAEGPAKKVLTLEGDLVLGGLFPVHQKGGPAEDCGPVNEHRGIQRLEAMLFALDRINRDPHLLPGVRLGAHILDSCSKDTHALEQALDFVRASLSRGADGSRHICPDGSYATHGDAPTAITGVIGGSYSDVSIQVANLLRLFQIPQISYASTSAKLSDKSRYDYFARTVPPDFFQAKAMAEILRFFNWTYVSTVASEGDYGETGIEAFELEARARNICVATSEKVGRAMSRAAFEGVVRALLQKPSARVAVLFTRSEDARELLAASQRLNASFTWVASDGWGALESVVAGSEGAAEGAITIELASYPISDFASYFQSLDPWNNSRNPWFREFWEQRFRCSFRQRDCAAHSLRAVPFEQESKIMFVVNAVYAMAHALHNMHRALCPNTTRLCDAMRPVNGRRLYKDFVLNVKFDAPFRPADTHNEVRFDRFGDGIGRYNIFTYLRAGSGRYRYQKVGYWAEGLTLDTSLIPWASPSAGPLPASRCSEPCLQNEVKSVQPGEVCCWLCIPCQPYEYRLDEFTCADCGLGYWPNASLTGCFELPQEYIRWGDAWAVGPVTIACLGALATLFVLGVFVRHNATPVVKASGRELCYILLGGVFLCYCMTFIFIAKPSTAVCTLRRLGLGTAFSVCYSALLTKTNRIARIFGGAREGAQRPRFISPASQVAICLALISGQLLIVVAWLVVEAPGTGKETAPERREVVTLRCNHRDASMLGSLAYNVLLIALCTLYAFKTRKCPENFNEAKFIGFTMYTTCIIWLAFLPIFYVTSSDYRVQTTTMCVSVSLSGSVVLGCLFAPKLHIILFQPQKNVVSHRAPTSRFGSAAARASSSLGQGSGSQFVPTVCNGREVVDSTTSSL

Row | SMILES | IC50
1 | C[C@H]1CN(c2ccc(Cl)c(F)c2)C(=O)c2c(-c3ccc4nccn4c3)cnn21 | 0.018 µM
2 | Cc1cnc2ccc(-c3cnn4c3C(=O)N(c3ccc(C(F)(F)F)cc3)C[C@@H]4C)cn12 | 0.0091 µM
3 | CCc1cnc2ccc(-c3cnn4c3C(=O)N(c3ccc(C(F)(F)F)cc3)C[C@@H]4C)cn12 | 0.0078 µM
4 | C[C@H]1CN(c2ccc3c(c2)OC(F)(F)O3)C(=O)c2c(-c3ccc4nccn4c3)cnn21 | 0.019 µM
5 | C[C@H]1CN(c2ccc(C(F)(F)F)cn2)C(=O)c2c(-c3ccc4nccn4c3)cnn21 | 0.016 µM
6 | Cc1cc(N2C[C@H](C)n3ncc(-c4ccc5ncc(C)n5c4)c3C2=O)ccc1F | 0.016 µM
7 | C[C@H]1CN(c2ccc(Cl)cc2)C(=O)c2c(-c3ccc4nccn4c3)cnn21 | 0.026 µM
